Legend:
[1] = test system: rats rendus dépressifs; test: Despair test in rat (first depression model); type: in vivo; conditions: dose de 10 mg; per os, twice daily, eight days
Excerpt: (§1) L'activité antidépressive du mélange folate de lithium - glutamate de lithium a été étudiée sur deux modèles de rats rendus dépressifs. On a utilisé comme molécule de référence, la desméthylimipramine (DMI) et comme produit de comparaison un mélange de carbonate de lithium, d'acide folique et d'acide glutamique dans les mêmes proportions que l'association selon l'invention. Les traitements ont été poursuivis per os avec administration biquotidienne durant huit jours.
Le premier modèle utilisé est le test du désespoir chez le rat (Despair Test). Les rats sont placés pour ce test dans une cuve d'eau tiédie à 27°C sans possibilité de s'échapper. Après une nage de quelques minutes, les animaux s'immobilisent et le temps moyen d'immobilité est chronométré. Il correspond à la phase de dépression. La DMI (antidépresseur de référence) à la dose de 10 mg diminue de 50 % ce temps d'immobilisation. Une courbe effet-dose a été établie avec l'association folate de lithium-glutamate de lithium. Un effet est observé dès la dose de 1 mg/kg. Il est maximum avec une dose de 20 mg/kg. A titre de comparaison, le lithium administré, sous forme de carbonate de lithium avec un mélange d'acide folique et d'acide glutamique, est moins actif sur ce modèle. On constate une potentialisation des effets du lithium lorsqu'il est administré sous forme de folate de lithium et de glutamate de lithium.

[2] = test system: rats rendus dépressifs; test: Modified one-way avoidance test in rat (second depression model); type: in vivo; conditions: dose de 1 mg/kg; per os, twice daily, eight days
Excerpt: as §1
Le second test pratiqué est un test à voie unique (one-way)modifié. Dans un premier temps on apprend aux rats à passer d'un compartiment à un autre pour éviter un choc électrique. Les rats sélectionnés qui donnent systématiquement la réponse d'évitement sont placés dans un système à quatre compartiments avec retour au premier compartiment. Les animaux apprennent à éviter le choc électrique en passant du compartiment I à II, puis II à III et […]. Le passage de IV vers I pose un problème puisque les rats reconnaissent (ou sentent) le point de départ.
Les rats s'immobilisent en position de « freezing » en dépit des décharges électriques qu'ils reçoivent. Le temps requis pour amener l'immobilisation correspond à une phase de dépression.

[3] = Solubility of the lithium salts; type: physicochemical; conditions: solvents as named in the value

For `CNCCCN1c2ccccc2CCc2ccccc21` [DMI, desméthylimipramine], the “diminution du temps d'immobilisation” value [1] was 50% and the “effet sur le temps d'immobilisation (freezing)” value [2] was “supprime complètement ce temps d'immobilisation”.

For folate de lithium, the solubilité [3] was “solubles dans l'eau et les solvants hydroxylés”.

For folinate de lithium [folinate lithié], the solubilité [3] was “solubles dans l'eau et les alcools”.
